Measured values: US20260216239A1 (Arizona Board of Regents on Behalf of the University of …, priority 2020, published 2026)
Entries after “also recorded” stand apart in the source; their conditions may differ.

How the values were obtained:
Echis leucogaster venom = assay: Thrombelastography in human plasma of venom procoagulant activity after isolated exposure of venom to compounds; type: biochemical
Protocol: Thrombelastographic analyses. The volumes of subsequently described plasmatic and other additives summed to a final volume of 360 μl. Samples were composed of 320 μl of plasma; 16.4 μl of PBS, 20 μl of 200 mM CaCl2), and 3.6 μl of PBS or venom mixture, which were pipetted into a disposable cup in a Thrombelastograph® hemostasis system (Model 5000, Haemonetics Inc., Braintree, MA, USA) at 37° C., and then rapidly mixed by moving the cup up against and then away from the plastic pin five times. The following viscoelastic parameters described previously (see, Nielsen V G (2019) J Thromb Thrombolysis 47, 73-79; Gessner G, et al., (2017) Eur J Pharmacol 815, 33-41; Nielsen V G, Wagner M T, Frank N (2020) Int J Mol Sci 21, 2082; Lazić D, Arsenijević A, Puchta R, Bugarčić ŽD, Rilak A (2016) Dalton Trans 45, 4633; Hanif M, et al., (2017) ChemPlusChem 82, 841-847) were measured: time to maximum rate of thrombus generation (TMRTG): this is the time interval (minutes) observed prior to maximum speed of clot growth; maximum rate of thrombus generation (MRTG): this is the maximum velocity of clot growth observed (dynes/cm^2/second); and total thrombus generation (TTG, dynes/cm^2), the final viscoelastic resistance observed after clot formation.
E. leucogaster. This venom was exposed to 0 or 100 μM CORM-2 in the presence of 0 or 100 μM RuCl3 in PBS for at least 5 minutes at room temperature prior to placement into plasma followed immediately with commencement of thrombelastographic analysis. The final concentration of this venom in plasma was 1 μg/ml.
Given the aforementioned, the experimental conditions utilized were: 1) V condition—venom in PBS; 2) Ru(II) condition—venom exposed to CORM-2; 3) Ru(III) condition—venom exposed to RuCl3; 4) Ru(II+III) condition—venom exposed to CORM-2 and RuCl3 simultaneously. After the 5 minute period at room temperature, 3.6 μl of one of these solutions was added to the plasma sample in the plastic thrombelastograph cup.
(§1) All venom solutions without or with chemical additions in isolation were added as a 1% addition to the plasma mix used in our thrombelastographic system (see, Nielsen, V. G.; et al., Biometals 2016, 29, 913-919; Nielsen, V. G.; Losada, P. A. Basic Clin. Pharmacol. Toxicol. 2017, 120, 207-212; Nielsen, V. G.; Frank, N. J. Thromb. Thrombolysis 2019, 47, 533-539; Nielsen, V. G.; Bazzell, C. M. J. Thromb. Thrombolysis 2017, 43, 203-208; Nielsen, V. G.; Matika, R. W. Hum. Exp. Toxicol. 2017, 36, 727-733; Nielsen, V. G.; et al., Toxins 2018, 10, 322; Nielsen, V. G.; et al., Biometals 2018, 31, 51-59; Nielsen, V. G.; Frank, N. et al., Biometals 2018, 31, 951-959; Nielsen, V. G.; et al., Toxins 2019, 11, 94; Nielsen, V. G.; Frank, N. Hum Exp. Toxicol. 2019, 38, 216-226; Nielsen, V. G. J. Thromb. Thrombolysis 2019, 48, 256-262; Nielsen, V. G.; et al., Blood Coagul. Fibrinolysis 2019, 30, 379-384; Nielsen, V. G. J. Thromb. Thrombolysis 2019, 47, 73-79; Gessner, G.; et al., Eur. J. Pharmacol. 2017, 815, 33-41). […] The thrombelastographic model describes coagulation kinetics with the following three variables: time to maximum thrombus generation (TMRTG, minutes—a measure of time to onset of coagulation), maximum rate of thrombus generation (MRTG, dynes/cm^2/s—a measure of the velocity of clot growth) and total thrombus generation (TTG, dynes/cm^2—a measure of clot strength).

human plasma = details: cited from earlier work
Atheris nitschei venom [1] = assay: Thrombelastography in human plasma of venom procoagulant activity after isolated exposure of venom to compounds; type: biochemical; details: venom 1 μg/mL in plasma
Protocol: as §1
The volumes of subsequently described plasmatic and other additives summed to a final volume of 360 μL. Samples were composed of 320 μL of plasma; 16.4 μL of PBS, 20 μL of 200 mM CaCl2), and 3.6 μL of PBS, RuCl3, or venom solution mixture, which were pipetted into a disposable cup in a Thrombelastograph® hemostasis system (Model 5000, Haemonetics Inc., Braintree, MA, USA) at 37° C., and then rapidly mixed by moving the cup up against and then away from the plastic pin five times. The PBS, RuCl3, or venom solution mixtures was always the last constituent added prior to mixing and data collection. The following viscoelastic parameters described previously (see, Nielsen, V. G.; et al., Biometals 2016, 29, 913-919; Nielsen, V. G.; Losada, P. A. Basic Clin. Pharmacol. Toxicol. 2017, 120, 207-212; Nielsen, V. G.; Frank, N. J. Thromb. Thrombolysis 2019, 47, 533-539; Nielsen, V. G.; Bazzell, C. M. J. Thromb. Thrombolysis 2017, 43, 203-208; Nielsen, V. G.; Matika, R. W. Hum. Exp. Toxicol. 2017, 36, 727-733; Nielsen, V. G.; et al., Toxins 2018, 10, 322; Nielsen, V. G.; et al., Biometals 2018, 31, 51-59; Nielsen, V. G.; Frank, N. et al., Biometals 2018, 31, 951-959; Nielsen, V. G.; et al., Toxins 2019, 11, 94; Nielsen, V. G.; Frank, N. Hum Exp. Toxicol. 2019, 38, 216-226; Nielsen, V. G. J. Thromb. Thrombolysis 2019, 48, 256-262; Nielsen, V. G.; et al., Blood Coagul. Fibrinolysis 2019, 30, 379-384; Nielsen, V. G. J. Thromb. Thrombolysis 2019, 47, 73-79) were measured: time to maximum rate of thrombus generation (TMRTG): this is the time interval (minutes) observed prior to maximum speed of clot growth; maximum rate of thrombus generation (MRTG): this is the maximum velocity of clot growth observed (dynes/cm^2/s); and total thrombus generation (TTG, dynes/cm^2), the final viscoelastic resistance observed after clot formation. Data were collected until the clot strength reached its final plateau (maximum amplitude) that was stable for 3 min.

Atheris nitschei venom [2] = details: previously characterized by this laboratory; cited from earlier work
[3] = 100 μM CORM-2, 100 μM RuCl3 or both, venom 1 μg/ml in plasma
[4] = venom exposed ≥5 min in PBS to 100 μM CORM-2, 100 μM RuCl3 or both, venom 1 μg/ml in plasma
[5] = venom exposed 5 min to 100 μM RuCl3 in PBS, venom 1 μg/mL in plasma (Example III)
[6] = venom exposed 5 min to 100 μM RuCl3 in PBS

SMILES | maximum rate of thrombus generation (MRTG) (Echis leucogaster venom; [3]) | time to maximum rate of thrombus generation (TMRTG) (Echis leucogaster venom; [3]) | procoagulant activity of venom (Echis leucogaster venom; venom exposed 5 min to 100 μM CORM-2 in PBS, venom 1 μg/mL in plasma (Example III)) | procoagulant activity of venom (Echis leucogaster venom; [4]) | coagulation kinetics (human plasma; 1 μM CORM-2) | plasmatic coagulation kinetics (human plasma; up to 10 μM CORM-2 in PBS) | procoagulant activity of venom (Atheris nitschei venom [1]; venom exposed 5 min to 100 μM CORM-2 in 5% human albumin) | procoagulant activity of venom (Atheris nitschei venom [1]; venom exposed 5 min to 100 μM CORM-2 in PBS) | CORM-2/ iRM Inhibition (Atheris nitschei venom [2]) | maximum rate of thrombus generation (MRTG) (Echis leucogaster venom; [5]) | time to maximum rate of thrombus generation (TMRTG) (Echis leucogaster venom; [5]) | total thrombus generation (TTG) (Echis leucogaster venom; [5]) | human plasmatic coagulation (human plasma; RuCl3 at or below 1 μM) | maximum rate of thrombus generation (MRTG) (Atheris nitschei venom [1]; [6]) | time to maximum rate of thrombus generation (TMRTG) (Atheris nitschei venom [1]; [6]) | total thrombus generation (TTG) (Atheris nitschei venom [1]; [6])
[C-]#[O+].[C-]#[O+].[C-]#[O+].[C-]#[O+].[C-]#[O+].[C-]#[O+].[Cl][Ru][Cl].[Cl][Ru][Cl] [CORM-2, tricarbonyldichlororuthenium(II) dimer] | decrease | increased; also recorded: significant increase | significantly attenuated | significantly decreased; also recorded: procoagulant activity inhibition | does not affect | no effect | uninhibited | significantly attenuated | Yes | – | – | – | – | – | – | –
[Cl][Ru]([Cl])[Cl] [RuCl3, ruthenium(III) chloride] | decrease | increase | – | significantly diminished | – | – | – | – | – | decrease | significant increase | decrease | does not significantly affect | significant increase | very diminutive increase | significant increase
